Laboratory results taken from US10087187B2, “Imidazopyridazine derivatives as PI3KB inhibitors” (Janssen Pharmaceutica NV, priority 2014, dated 2018).
Where two headings read alike, the source gives them in different places.

How the values were obtained:
[1] = test system: Akt phosphorylated at Thr308 in PC-3 cells; test: Cellular assay: phosphorylation of Akt (Thr308) in PC-3 cells, MSD ELISA; type: cell-based; details: 60 min incubation with compound, read-out: IC50 pAkt_Thr308
Method: (§1) Cellular activity of PI3Kβ inhibitors was determined by quantifying the phosphorylation of Akt in PC-3 cells. Akt phosphorylated at Ser473 and Thr308 were measured using an enzyme-linked immunosorbent assay (ELISA; Meso Scale Discovery (MSD), Gaithersburg, Md.) and specific primary antibodies from MSD.
(§2) On day 1, PC3 cells (ATCC # […]) were seeded into PerkinElmer MW96 plates at 25.000 cells per well, in 75 μl complete culture medium (DMEM (Dulbecco's Modified Eagle's Medium) high glucose, AQmedia™, D0819, Sigma-Aldrich) containing 10% heat inactivated FCS (Fetal Bovine Serum) and incubated at 37° C., 5% CO2 during 24 hours. On day 2, compound or DMSO (dimethyl sulfoxide) (0.3%) was added and cells were further incubated for 60 min at 37° C., 5% CO2 in a total volume of 100 μl of medium.
(§3) The phosphoprotein assay was executed according to vendor instructions in the Phospho-Akt (Ser473) Assay Whole Cell Lysate Kit (MSD # K15100D-3) and the Phospho-Akt (Thr308) Assay Whole Cell Lysate Kit (MSD # K151DYD-3) using the lysis, blocking and wash buffer provided.
(§4) Briefly, at the end of the cell treatment period, media were removed by aspiration and adherent cells were lysed in 50 μl ice-cold lysis buffer. MSD plates are supplied pre-coated with capture antibodies for Phospho-Akt (Ser473 and Thr308). After blocking, lysates from tissue culture plates were added and plates were washed. Then, a solution containing the detection antibody (anti-total Akt conjugated with an electrochemiluminescent compound-MSD Sulfo-tag label) was added. The signals were detected using an MSD SECTOR Imager 6000 and are proportional to the phospho-Akt titres.
(§5) Data were processed. The percentage of inhibition was plotted against the log concentration of test compounds, and the sigmoidal log concentration-effect curve of best fit was calculated by nonlinear regression analysis. From these concentration-response curves, the IC50 values were calculated. Five concentrations were used for curve fitting.

PIK3Cγ_h = PIK3Cγ_h (Homo sapiens (Human), UniProt P48736); test: KINOMEscan enzyme binding assay, PIK3Cγ; details: DiscoveRx
Method: (§6) Enzyme Binding Assays (KINOMEscan®) Kinase enzyme binding affinities of compounds disclosed herein were determined using the KINOMEscan technology performed by DiscoveRx Corporation, San Diego, Calif., USA (www.kinomescan.com).

[2] = test system: Akt phosphorylated at Ser473 in PC-3 cells; test: Cellular assay: phosphorylation of Akt (Ser473) in PC-3 cells, MSD ELISA; type: cell-based; details: 60 min incubation with compound, read-out: IC50 pAkt_S473
Method: as §1, §2, §3, §4, §5

PIK3Cα_h = PIK3Cα_h (Homo sapiens (Human), UniProt P42336); test: KINOMEscan enzyme binding assay, PIK3Cα; details: DiscoveRx
Method: as §6

PIK3Cβ_h = PIK3Cβ_h (Homo sapiens (Human), UniProt P42338); test: KINOMEscan enzyme binding assay, PIK3Cβ; details: DiscoveRx
Method: as §6, with “(www.kinomescan.com). Table A reports the obtained Kd values (nM), with the Kd being the inhibitor binding constant: […]” for “(www.kinomescan.com).”

MTOR_h = MTOR_h (Homo sapiens (Human), UniProt P42345); test: KINOMEscan enzyme binding assay, MTOR; details: DiscoveRx
Method: as §6

PIK3Cδ_h = PIK3Cδ_h (Homo sapiens (Human), UniProt O00329); test: KINOMEscan enzyme binding assay, PIK3Cδ; details: DiscoveRx
Method: as §6, with “(www.kinomescan.com). Table A reports the obtained Kd values (nM), with the Kd being the inhibitor binding constant: […]” for “(www.kinomescan.com).”

PIK3Cδ_h, sequence (O00329 whole entry): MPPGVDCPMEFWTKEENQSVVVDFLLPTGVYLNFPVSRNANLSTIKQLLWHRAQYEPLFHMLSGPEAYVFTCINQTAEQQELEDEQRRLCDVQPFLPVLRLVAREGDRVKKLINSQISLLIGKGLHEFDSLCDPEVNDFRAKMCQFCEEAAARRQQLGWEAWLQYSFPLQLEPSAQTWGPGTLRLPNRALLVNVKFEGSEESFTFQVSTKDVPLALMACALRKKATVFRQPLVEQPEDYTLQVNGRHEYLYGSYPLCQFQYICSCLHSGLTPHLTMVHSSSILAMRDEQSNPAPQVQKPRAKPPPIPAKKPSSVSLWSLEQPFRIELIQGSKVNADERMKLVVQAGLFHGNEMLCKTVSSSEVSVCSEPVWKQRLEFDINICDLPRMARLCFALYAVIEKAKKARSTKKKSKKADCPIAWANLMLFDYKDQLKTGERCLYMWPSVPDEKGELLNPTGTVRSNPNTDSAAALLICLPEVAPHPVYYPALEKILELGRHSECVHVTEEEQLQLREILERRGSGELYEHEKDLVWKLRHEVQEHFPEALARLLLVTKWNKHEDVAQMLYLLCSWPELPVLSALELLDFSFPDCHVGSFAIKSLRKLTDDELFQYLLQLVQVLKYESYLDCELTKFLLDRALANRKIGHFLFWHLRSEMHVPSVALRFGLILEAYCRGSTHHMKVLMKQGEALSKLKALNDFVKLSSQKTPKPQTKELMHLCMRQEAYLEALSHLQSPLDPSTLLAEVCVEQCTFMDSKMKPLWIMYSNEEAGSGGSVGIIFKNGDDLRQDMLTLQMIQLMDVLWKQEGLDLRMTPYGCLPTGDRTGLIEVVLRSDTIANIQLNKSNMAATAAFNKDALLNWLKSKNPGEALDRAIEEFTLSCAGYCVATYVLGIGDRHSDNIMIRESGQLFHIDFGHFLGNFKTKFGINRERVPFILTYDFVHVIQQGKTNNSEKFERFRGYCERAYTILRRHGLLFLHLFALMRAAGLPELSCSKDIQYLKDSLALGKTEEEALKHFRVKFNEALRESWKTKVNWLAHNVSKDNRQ
PIK3Cγ_h, sequence (P48736 whole entry): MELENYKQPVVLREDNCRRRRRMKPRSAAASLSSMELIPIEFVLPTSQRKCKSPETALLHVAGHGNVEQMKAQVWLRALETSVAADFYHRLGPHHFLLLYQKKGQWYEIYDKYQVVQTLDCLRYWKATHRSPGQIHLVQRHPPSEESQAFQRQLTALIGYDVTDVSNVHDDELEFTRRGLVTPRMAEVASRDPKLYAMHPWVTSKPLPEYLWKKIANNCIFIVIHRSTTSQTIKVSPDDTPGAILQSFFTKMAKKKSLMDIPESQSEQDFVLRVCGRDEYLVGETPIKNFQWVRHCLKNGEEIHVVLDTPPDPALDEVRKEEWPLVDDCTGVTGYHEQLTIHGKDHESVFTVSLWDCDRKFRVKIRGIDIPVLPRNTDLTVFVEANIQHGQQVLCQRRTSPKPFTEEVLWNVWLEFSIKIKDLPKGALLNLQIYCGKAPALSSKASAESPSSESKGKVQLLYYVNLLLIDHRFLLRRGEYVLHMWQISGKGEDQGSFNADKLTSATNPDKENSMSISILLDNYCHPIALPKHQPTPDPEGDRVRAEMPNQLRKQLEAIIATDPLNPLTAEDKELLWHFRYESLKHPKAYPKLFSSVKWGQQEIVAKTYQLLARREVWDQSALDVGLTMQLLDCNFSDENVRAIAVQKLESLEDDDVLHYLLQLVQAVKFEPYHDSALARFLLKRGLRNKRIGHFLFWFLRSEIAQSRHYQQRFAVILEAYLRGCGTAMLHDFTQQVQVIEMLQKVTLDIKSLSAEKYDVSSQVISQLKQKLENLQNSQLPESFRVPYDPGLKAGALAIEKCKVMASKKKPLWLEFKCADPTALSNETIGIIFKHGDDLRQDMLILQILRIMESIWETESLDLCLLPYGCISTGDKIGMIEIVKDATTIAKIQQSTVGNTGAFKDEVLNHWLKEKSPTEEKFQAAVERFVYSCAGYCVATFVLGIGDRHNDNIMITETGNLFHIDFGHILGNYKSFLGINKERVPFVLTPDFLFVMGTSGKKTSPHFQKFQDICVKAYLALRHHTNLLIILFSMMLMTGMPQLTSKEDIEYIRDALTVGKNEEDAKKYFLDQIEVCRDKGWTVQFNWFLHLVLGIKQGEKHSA
PIK3Cα_h, sequence (P42336 whole entry): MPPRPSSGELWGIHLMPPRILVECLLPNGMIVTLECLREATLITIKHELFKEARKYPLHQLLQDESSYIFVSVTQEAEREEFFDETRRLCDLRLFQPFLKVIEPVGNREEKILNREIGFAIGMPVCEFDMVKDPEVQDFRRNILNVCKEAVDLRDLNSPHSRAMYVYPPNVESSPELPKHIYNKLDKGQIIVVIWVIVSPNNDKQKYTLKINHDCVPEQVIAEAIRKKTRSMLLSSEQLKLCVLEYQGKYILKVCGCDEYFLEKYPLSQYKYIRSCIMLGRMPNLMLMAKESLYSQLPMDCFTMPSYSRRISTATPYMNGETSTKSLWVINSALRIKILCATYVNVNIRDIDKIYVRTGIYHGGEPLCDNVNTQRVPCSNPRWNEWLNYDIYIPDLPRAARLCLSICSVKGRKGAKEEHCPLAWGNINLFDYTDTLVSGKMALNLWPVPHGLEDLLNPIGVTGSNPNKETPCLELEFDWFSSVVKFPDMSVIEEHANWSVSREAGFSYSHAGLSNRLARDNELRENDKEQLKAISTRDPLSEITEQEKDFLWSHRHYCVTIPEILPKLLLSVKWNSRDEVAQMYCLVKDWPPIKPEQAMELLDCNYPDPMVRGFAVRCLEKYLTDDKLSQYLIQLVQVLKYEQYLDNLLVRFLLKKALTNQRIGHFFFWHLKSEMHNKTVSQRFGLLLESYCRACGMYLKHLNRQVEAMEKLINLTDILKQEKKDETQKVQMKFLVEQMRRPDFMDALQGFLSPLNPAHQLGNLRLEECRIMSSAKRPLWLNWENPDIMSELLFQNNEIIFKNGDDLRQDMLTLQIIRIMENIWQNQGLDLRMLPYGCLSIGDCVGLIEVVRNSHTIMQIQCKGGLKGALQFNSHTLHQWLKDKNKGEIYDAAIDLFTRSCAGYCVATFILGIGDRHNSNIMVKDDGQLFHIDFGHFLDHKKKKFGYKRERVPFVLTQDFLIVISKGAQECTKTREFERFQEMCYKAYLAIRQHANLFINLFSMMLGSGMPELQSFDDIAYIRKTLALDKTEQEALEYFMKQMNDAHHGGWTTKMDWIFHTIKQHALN
PIK3Cβ_h, sequence (P42338 whole entry): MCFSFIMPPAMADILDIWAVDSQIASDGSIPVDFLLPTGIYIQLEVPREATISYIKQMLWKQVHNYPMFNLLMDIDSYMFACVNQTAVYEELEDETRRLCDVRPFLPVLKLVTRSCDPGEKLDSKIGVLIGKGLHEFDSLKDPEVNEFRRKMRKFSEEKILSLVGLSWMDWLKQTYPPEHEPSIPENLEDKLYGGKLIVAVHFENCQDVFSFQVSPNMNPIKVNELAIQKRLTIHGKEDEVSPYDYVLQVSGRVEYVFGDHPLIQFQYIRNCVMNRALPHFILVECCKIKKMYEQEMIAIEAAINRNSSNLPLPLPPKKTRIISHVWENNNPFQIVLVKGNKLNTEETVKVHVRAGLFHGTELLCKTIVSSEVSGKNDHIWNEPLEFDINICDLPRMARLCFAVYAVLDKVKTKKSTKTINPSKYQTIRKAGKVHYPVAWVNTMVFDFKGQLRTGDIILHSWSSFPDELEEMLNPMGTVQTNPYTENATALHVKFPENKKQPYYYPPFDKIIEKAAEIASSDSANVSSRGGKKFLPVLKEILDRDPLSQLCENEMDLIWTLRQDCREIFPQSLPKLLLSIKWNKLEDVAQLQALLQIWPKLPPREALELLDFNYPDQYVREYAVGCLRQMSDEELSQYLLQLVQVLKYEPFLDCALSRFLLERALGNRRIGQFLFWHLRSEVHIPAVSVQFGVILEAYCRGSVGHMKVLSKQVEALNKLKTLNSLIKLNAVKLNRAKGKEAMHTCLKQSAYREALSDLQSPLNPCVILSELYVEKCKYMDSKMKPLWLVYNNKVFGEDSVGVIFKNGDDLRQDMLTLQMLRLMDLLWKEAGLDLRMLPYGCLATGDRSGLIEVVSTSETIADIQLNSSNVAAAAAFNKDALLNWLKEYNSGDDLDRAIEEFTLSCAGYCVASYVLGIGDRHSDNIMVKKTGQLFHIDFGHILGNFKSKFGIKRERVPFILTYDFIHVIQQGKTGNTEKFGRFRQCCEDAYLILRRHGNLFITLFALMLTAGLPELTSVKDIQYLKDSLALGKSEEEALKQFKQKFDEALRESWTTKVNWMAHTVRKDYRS

IC50 ([1]; Homo sapiens, PC-3, 1 h) [nM]	Kd (PIK3Cγ_h) [nM]	IC50 ([2]; Homo sapiens, PC-3, 1 h) [nM]	Kd (PIK3Cα_h) [nM]	Kd (PIK3Cβ_h) [nM]	Kd (MTOR_h) [nM]	Kd (PIK3Cδ_h) [nM]	IC50 [1] [nM]	IC50 [2] [nM]	SMILES
~71	15500	120	9550	1.1	7940	105	–	–	Cc1c(Cc2c(CNCCO)nc3c(N)cc(N4CCOCC4)nn23)cccc1C(F)(F)F [Compound 3]
~513	12300	> 513	3390	7	> 30200	200	–	–	Cc1nc2c(C(=O)O)cc(C3=CCOCC3)nn2c1Cc1cccc(C(F)(F)F)c1C [Compound 29]
> 513	13600	> 513	21400	14	18700	376	–	–	Nc1cc(N2CCOCC2)nn2c(Cc3cccc(F)c3C3CCN(CCO)CC3)c(CO)nc12 [Compound 108]
38	1260	60	537	1.3	776	33	–	–	Cc1nc2c(-c3c[nH]cn3)cc(N3CCOCC3)nn2c1Nc1cccc(F)c1C [Compound 50]
> 513	> 30200	501	> 30200	20	> 30200	12600	–	–	Cc1nc2c(C(N)=O)cc(N3CCOCC3)nn2c1Cc1cccc(C(F)(F)F)c1C [Compound 10]
151	> 30200	105	> 30200	12	> 30200	1660	–	–	CC(=O)OCc1nc2c(N)cc(N3CCOCC3)nn2c1Cc1cccc(C(F)(F)F)c1C [Compound 61]
17	11400	12	5130	6	20300	171	–	–	Cc1nc2c(N)cc(N3CCOCC3)nn2c1Nc1cccc(C(F)(F)F)c1C [Compound 33]
–	–	–	–	–	–	–	41	52	Cc1c(Cc2c(CO)nc3c(N)cc(N4CCOCC4)nn23)cccc1C(F)(F)F [Compound 14e]
> 513	–	> 513	–	–	–	–	–	–	CCc1c(F)cccc1Cc1c(CNCCO)nc2c(N)cc(N3CCOCC3)nn12 [Compound 101]
–	–	–	3160	1.4	–	47	25	58	Cc1nc2c(N)cc(N3CCOCC3)nn2c1Nc1cccc(C(F)(F)F)c1CN1CCC(O)C1 (centres unmarked) [Compound 77]
–	–	–	–	–	–	–	29	67	Cc1c(Cc2c(CO)nc3c(N)cc(N4CCOCC4)nn23)cccc1C(F)(F)F [Compound 14d]
–	–	–	3240	1.3	–	35	26	51	Cc1nc2c(N)cc(N3CCOCC3)nn2c1Nc1cccc(C(F)(F)F)c1CN1CCC(O)C1 (centres unmarked) [Compound 78]
~81	–	145	–	2.1	11500	166	–	–	Cc1nc2c(N)cc(N3CCOCC3)nn2c1Nc1cccc(C(F)(F)F)c1CO [Compound 51]
26	–	30	4900	2.2	–	31	–	–	Cc1nc2c(N)cc(N3CCOCC3)nn2c1Nc1cccc(C(F)(F)F)c1CN1CCC(O)C1 (centres unmarked) [Compound 74]
120	8320	–	11200	12	8710	69	–	–	Cc1nc2c(N)cc(N3CCOCC3)nn2c1Nc1ccccc1N1CCOCC1 [Compound 88]
85	> 30200	–	26300	1.2	> 30200	537	–	–	Nc1cc(N2CCOCC2)nn2c(Cc3cccc(C(F)(F)F)c3C3CCN(CCO)CC3)c(CO)nc12 [Compound 105]
26	–	28	–	–	–	–	–	–	Cc1c(Cc2c(CO)nc3c(-c4cnc[nH]4)cc(N4CCOCC4)nn23)cccc1C(F)(F)F [Compound 19]
